Assay results published in US20230026271A1, “Piperazine Compounds for Inhibiting CPS1” (Eisai R&D Management Co., Ltd., priority 2019, published 2023).

Target: T1, CPS1 (Homo sapiens, UniProt P31327)
T1 construct: The full length, human CPS1 gene was cloned into pFastBac HTA; His6 (from the pFastBac HTA vector); made in house; host or cells: SF21 insect cells (baculovirus, Bac-to-bac)
T1 sequence (P31327 39-1500): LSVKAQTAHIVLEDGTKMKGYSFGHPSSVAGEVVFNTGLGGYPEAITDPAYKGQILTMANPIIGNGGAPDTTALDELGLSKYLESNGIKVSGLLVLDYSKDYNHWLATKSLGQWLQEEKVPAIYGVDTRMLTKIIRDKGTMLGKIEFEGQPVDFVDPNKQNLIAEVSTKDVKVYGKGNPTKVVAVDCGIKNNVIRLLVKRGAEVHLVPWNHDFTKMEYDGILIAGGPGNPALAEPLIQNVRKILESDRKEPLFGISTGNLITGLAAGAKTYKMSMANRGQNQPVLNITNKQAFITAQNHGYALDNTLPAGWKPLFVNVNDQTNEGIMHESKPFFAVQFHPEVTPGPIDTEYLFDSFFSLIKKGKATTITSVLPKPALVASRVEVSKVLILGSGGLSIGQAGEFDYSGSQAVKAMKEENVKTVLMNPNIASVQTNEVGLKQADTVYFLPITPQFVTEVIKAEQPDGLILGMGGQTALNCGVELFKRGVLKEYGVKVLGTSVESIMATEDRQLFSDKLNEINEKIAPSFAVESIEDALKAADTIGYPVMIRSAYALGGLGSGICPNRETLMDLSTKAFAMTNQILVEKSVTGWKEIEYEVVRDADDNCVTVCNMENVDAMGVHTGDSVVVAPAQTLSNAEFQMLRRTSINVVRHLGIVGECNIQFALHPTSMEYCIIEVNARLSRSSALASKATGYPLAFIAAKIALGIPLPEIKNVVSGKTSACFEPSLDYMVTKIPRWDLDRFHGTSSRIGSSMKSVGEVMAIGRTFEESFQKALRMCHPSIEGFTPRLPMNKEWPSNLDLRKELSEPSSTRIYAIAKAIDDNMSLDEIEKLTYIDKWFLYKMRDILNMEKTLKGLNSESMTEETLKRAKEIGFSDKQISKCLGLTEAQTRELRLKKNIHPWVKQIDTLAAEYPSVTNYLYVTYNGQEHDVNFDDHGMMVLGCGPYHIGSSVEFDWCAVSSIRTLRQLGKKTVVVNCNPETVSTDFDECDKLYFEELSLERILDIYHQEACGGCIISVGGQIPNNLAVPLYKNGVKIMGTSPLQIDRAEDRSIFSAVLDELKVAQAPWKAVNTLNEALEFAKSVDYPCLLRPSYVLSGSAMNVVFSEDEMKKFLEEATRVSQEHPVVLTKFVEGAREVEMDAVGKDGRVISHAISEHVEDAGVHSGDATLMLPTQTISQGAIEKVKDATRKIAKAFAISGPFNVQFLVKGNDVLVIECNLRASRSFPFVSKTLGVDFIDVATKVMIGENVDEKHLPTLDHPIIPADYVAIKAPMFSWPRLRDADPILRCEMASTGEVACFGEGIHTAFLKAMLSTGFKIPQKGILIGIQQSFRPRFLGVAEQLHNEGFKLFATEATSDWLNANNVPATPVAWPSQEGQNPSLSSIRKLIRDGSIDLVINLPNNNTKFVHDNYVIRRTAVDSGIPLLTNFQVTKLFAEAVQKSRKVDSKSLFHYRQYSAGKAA
Assay: ADP-Glo endpoint assay measuring the ATPase activity of CPS1
Type: biochemical
Settings: geometric mean of a minimum of two values; 50 nM CPS1, 10 μM ATP, 0.2 mM NAG, 60 min at room temperature; read-out: ADPGlo IC50
Method in brief: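 Full-length human His-tagged CPS1 from SF21 insect cells, 50 nM, preincubated 20 min with compound in pH 7.0 HEPES buffer containing KHCO3, (NH4)2SO3, MgCl2 and 0.2 mM NAG. Reaction started with 10 μM ATP, 60 min at room temperature; ADP formed detected by ADP-Glo luminescence.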

SMILES | IC50 [µM]
COc1ccc(C(=O)N2[C@H](C)CN(C(=O)Cc3c(C)[nH]c4ccccc34)C[C@H]2C)c(F)c1 [Compound 78, 1-((3R,5R)-4-(2-fluoro-4-methoxybenzoyl)-3,5-dimethylpiperazin-1-yl)-2-(2-methyl-1H-indol-3-yl)ethanone] | 19.2
COc1ccc(OC)c2[nH]c(C(=O)N3CCN(C(=O)c4ccc5cc[nH]c5c4)CC3)cc12 [Compound 54, (4-(1H-indole-6-carbonyl)piperazin-1-yl)(4,7-dimethoxy-1H-indol-2-yl)methanone] | 2.12
COc1ccc(C(=O)N2[C@H](C)CN(C(=O)c3ccc4nc[nH]c4c3)C[C@H]2C)c(F)c1 [Compound 38, ((2R,6R)-4-(1H-Benzo[d]imidazole-5-carbonyl)-2,6-dimethylpiperazin-1-yl)(2-fluoro-4-methoxyphenyl)methanone] | 4.91
COc1ccc(C(=O)N2CCN(C(=O)c3ccc(OC)cc3F)C(C)C2)c(F)c1 (stereo not shown) [Compound 45, (2-Methylpiperazine-1,4-diyl)bis((2-fluoro-4-methoxyphenyl)methanone)] | 5.21
COc1ccc(C(=O)N2C[C@@H](C)N(C(=O)c3c(F)cc(OC)cc3F)[C@H](C)C2)c(F)c1 [Compound 95, ((3R,5R)-4-(2,6-difluoro-4-methoxybenzoyl)-3,5-dimethylpiperazin-1-yl)(2-fluoro-4-methoxyphenyl)methanone] | > 66.7
COc1ccc(C(=O)N2[C@H](C)CN(C(=O)c3ccc4ccn(C)c4c3)C[C@H]2C)c(F)c1 [Compound 83, ((2R,6R)-2,6-dimethyl-4-(1-methyl-1H-indole-6-carbonyl)piperazin-1-yl)(2-fluoro-4-methoxyphenyl)methanone] | 31
COc1ccc(C(=O)N2[C@H](C)CN(C(=O)c3cc(OC)c(OC)cc3F)C[C@H]2C)c(F)c1 [Compound 101, ((2R,6R)-4-(2-fluoro-4,5-dimethoxybenzoyl)-2,6-dimethylpiperazin-1-yl)(2-fluoro-4-methoxyphenyl)methanone] | > 66.7
CCOc1ccc(C(=O)N2[C@H](C)CN(C(=O)c3ccc(OC)cc3F)C[C@H]2C)c(F)c1 [Compound 27, ((3R,5R)-4-(4-Ethoxy-2-fluorobenzoyl)-3,5-dimethylpiperazin-1-yl)(2-fluoro-4-methoxyphenyl)methanone] | 0.414
COc1ccc(C(=O)N2C[C@@H](C)N(C(=O)c3ccc(OCc4ccccc4)cc3F)[C@H](C)C2)c(F)c1 [Compound 24, ((3R,5R)-4-(4-(Benzyloxy)-2-fluorobenzoyl)-3,5-dimethylpiperazin-1-yl)(2-fluoro-4-methoxyphenyl)methanone] | 0.995
COc1ccc(C(=O)N2C[C@@H](C)N(C(=O)c3ccc(Cl)cc3F)[C@H](C)C2)c(F)c1 [Compound 66, ((3R,5R)-4-(4-chloro-2-fluorobenzoyl)-3,5-dimethylpiperazin-1-yl)(2-fluoro-4-methoxyphenyl)methanone] | 4.91
COc1ccc(C(=O)N2C[C@@H](C)N(C(=O)c3ccc(C)c(O)c3)[C@H](C)C2)c(F)c1 [Compound 70] | 8.71
COc1ccc(C(=O)N2CCN(C(=O)c3ccc(OC)cc3F)[C@H](C)C2)c(F)c1 [Compound 46, (R)-(2-methylpiperazine-1,4-diyl)bis((2-fluoro-4-methoxyphenyl)methanone)] | 6.04
COc1ccc(C(=O)N2C[C@@H](C)N(C(=O)c3cc(F)c(OC)cc3F)[C@H](C)C2)c(F)c1 [Compound 23, ((3R,5R)-4-(2,5-Difluoro-4-methoxybenzoyl)-3,5-dimethylpiperazin-1-yl)(2-fluoro-4-methoxyphenyl)methanone] | 1.19
COc1ccc(C(=O)N2C[C@@H](C)N(C(=O)c3ccc4ccn(C)c4c3)[C@H](C)C2)c(F)c1 [Compound 99, ((3R,5R)-3,5-dimethyl-4-(1-methyl-1H-indole-6-carbonyl)piperazin-1-yl)(2-fluoro-4-methoxyphenyl)methanone] | > 66.7
COc1ccc(C(=O)N2[C@H](C)CN(C(=O)c3ccc(NC(C)=O)cc3F)C[C@H]2C)c(F)c1 [Compound 8, N-(3-Fluoro-4-((3R,5R)-4-(2-fluoro-4-methoxybenzoyl)-3,5-dimethylpiperazine-1-carbonyl)phenyl)acetamide] | 2.78
COc1ccc(C(=O)N2[C@H](C)CN(C(=O)c3ccc(OC)cc3Cl)C[C@H]2C)c(F)c1 [Compound 11, ((2R,6R)-4-(2-Chloro-4-methoxybenzoyl)-2,6-dimethylpiperazin-1-yl)(2-fluoro-4-methoxyphenyl)methanone] | 2.81
COc1ccc(C(=O)N2C[C@@H](C)N(C(=O)c3ccc(C)cc3F)[C@H](C)C2)c(F)c1 [Compound 22, ((2R,6R)-4-(2-Fluoro-4-methoxybenzoyl)-2,6-dimethylpiperazin-1-yl)(2-fluoro-4-methylphenyl)methanone] | 0.358
COc1ccc(C(=O)N2[C@H](C)CN(C(=O)c3ccc(S(C)(=O)=O)cc3F)C[C@H]2C)c(F)c1 [Compound 102, ((2R,6R)-4-(2-fluoro-4-(methylsulfonyl)benzoyl)-2,6-dimethylpiperazin-1-yl)(2-fluoro-4-methoxyphenyl)methanone] | > 66.7
COc1ccc(C(=O)N2CC(C)N(C(=O)c3ccc(OC)cc3F)C(C)C2)c(F)c1 (stereo not shown) [Compound 68, (2,6-dimethylpiperazine-1,4-diyl)bis((2-fluoro-4-methoxyphenyl)methanone)] | 6.34
COc1ccc(C(=O)N2C[C@@H](C)N(C(=O)c3ccc(OC)c(F)c3F)[C@H](C)C2)c(F)c1 [Compound 34, ((3R,5R)-4-(2,3-Difluoro-4-methoxybenzoyl)-3,5-dimethylpiperazin-1-yl)(2-fluoro-4-methoxyphenyl)methanone] | 0.387
COc1ccc(C(=O)N2[C@H](C)CN(c3ncnc4cc(OC)ccc34)C[C@H]2C)c(F)c1 [Compound 62, (2-fluoro-4-methoxyphenyl)((2R,6R)-4-(7-methoxyquinazolin-4-yl)-2,6-dimethylpiperazin-1-yl)methanone] | 10.5
COc1ccc(C(=O)N2[C@H](C)CN(C(=O)c3c[nH]c4ccc(F)cc34)C[C@H]2C)c(F)c1 [Compound 87, (5-fluoro-1H-indol-3-yl)((3R,5R)-4-(2-fluoro-4-methoxybenzoyl)-3,5-dimethylpiperazin-1-yl)methanone] | 37.7
COc1ccc(C(=O)N2[C@H](C)CN(C(=O)c3ccc(OC)cc3OC)C[C@H]2C)c(F)c1 [Compound 100, ((2R,6R)-4-(2,4-dimethoxybenzoyl)-2,6-dimethylpiperazin-1-yl)(2-fluoro-4-methoxyphenyl)methanone] | > 66.7
COc1ccc(C(=O)N2C[C@@H](C)N(C(=O)c3ccc(-c4ccn(C)n4)cc3)[C@H](C)C2)c(F)c1 [Compound 80, ((3R,5R)-3,5-dimethyl-4-(4-(1-methyl-1H-pyrazol-3-yl)benzoyl)piperazin-1-yl)(2-fluoro-4-methoxyphenyl)methanone] | 22.9
COc1ccc(C(=O)N2C[C@@H](C)N(C(=O)c3ccc(-c4cnco4)cc3)[C@H](C)C2)c(F)c1 [Compound 39, ((3R,5R)-3,5-Dimethyl-4-(4-(oxazol-5-yl)benzoyl)piperazin-1-yl)(2-fluoro-4-methoxyphenyl)methanone] | 3.58
